The values below come from patent publication US6908947B2, “Sulfonamide-substituted fused 7-membered ring compounds, their use as a medicament, and pharmaceutical preparations comprising them” (Aventis Pharma Deutschland GmbH, priority 1997, dated 2005).

One may read the melting point as the temperature of the solid-liquid transition. Take `O=S(=O)(N[C@@H]1c2ccccc2CCC[C@H]1O)c1ccccc1` (relative stereo) [Example 16, trans-5-(N-Phenylsulfonylamino)-6,7,8,9-tetrahydro-5H-benzocyclohepten-6-ol]: the melting point lay within 128 to 128.2 °C.
Take `Cc1ccc(S(=O)(=O)N[C@@H]2c3ccccc3CCC[C@H]2O)cc1` (relative stereo) [Example 17, trans-5-[N-(4-Methylphenyl)-sulfonylamino]-6,7,8,9-tetrahydro-5H-benzocyclo hepten-6-ol]: the melting point is 124.5 to 125.1 °C.
Consider `CCc1ccc(S(=O)(=O)N[C@@H]2c3cc([N+](=O)[O-])ccc3CCC[C@H]2O)cc1` (relative stereo) [Example 20, trans-5-[N-(4-Ethylphenyl)-sulfonylamino]-3-nitro-6,7,8,9-tetrahydro-5H-benzocyclohepten-6-ol], for which the melting point lay in the range of 159 to 161 °C.
`CN(C1CCCOc2ccccc21)S(C)(=O)=O` (stereo not drawn) [Example 8, 5-(N-Methyl-N-methylsulfonylamino)-2,3,4,5-tetrahydro-1-benzoxepine]: the melting point fell in the range of 143 to 145 °C.
`COc1ccc(S(=O)(=O)N[C@@H]2c3ccccc3CCC[C@H]2O)cc1` (relative stereo) [Example 18, trans-5-[N-(4-Methoxyphenyl)-sulfonylamino]-6,7,8,9-tetrahydro-5H-benzocyclohepten-6-ol]: the melting point lay in the range of 140 to 141 °C.
Molecule `O=S(=O)(N[C@@H]1c2ccccc2CCC[C@H]1O)c1ccc(Cl)cc1` (relative stereo) [Example 19, trans-5-[N-(4-Chlorophenyl)-sulfonylamino]-6,7,8,9-tetrahydro-5H-benzocyclohepten-6-ol] displayed a melting point of 172 to 173 °C.
